These results are taken from patent US5019390A, “Anticancer agent--IMIC” (Research Corporation Technologies, Inc., priority 1987, dated 1991).

For assay [1], the system named is P388 leukemia cells. The experiment in a line: IP injection study in vivo, P388 leukemia in DBA/2 mice. The following applies: in vivo experiment 4, daily IP injections.
Protocol: Mice were 26-27 days old. […] Purina mouse chow was supplied ad libitum.
In experiments 3 & 4 (Tables 12a & 13a) the DBA/2 mouse was used.
DNA was determined on total cells with no differentiation between viable and non-viable cells.
Assay [2] deals with P388 leukemia cells. The experiment in a line: Viable P388 leukemia cells in cell culture (trypan blue). The following applies: 48 hours, 37° C.
The mark [3] stands for this setting: in vitro experiment 1, 8 ml treatment.
The mark [4] stands for this setting: in vitro experiment 2, 2 ml treatment.

For the compound `O=C(O)c1cc(=O)[nH]c(=O)[nH]1` [Orotic Acid, orotic acid], in the assay on P388 leukemia cells [1], the “% Inhibition (numbers of viable P388 cells)” value was 38%, the “DNA Content” value amounted to 428 µg/mL and the “Numbers of Viable P388 Cells/ml” value was 4.20 × 10^7 ± 630000 cells/ml. In addition, in the assay with P388 leukemia cells [2] (setting [3]), the “% Inhibition Based on Ringers Locke Control” value is on record as 11% and the “Numbers of Viable P388 Cells/ml” value is recorded as “.66 × 10^6 ± 3500 Cells/ml”. For the same compound, in the assay on P388 leukemia cells [2] (setting [4]), the “% Inhibition Based on Extraction Blank” value is given as “Stimulation”, the “% Inhibition Based on PBS Control” value was “Stimulation” and the “Numbers of Viable P388 Cells/ml” value is reported as 1.90 × 10^6 ± 7100 Cells/ml.
